Key:
[1] = target: Activin receptor type-2B (Homo sapiens) (UniProt Q13705); settings: Compound concentration 1000.0 nM
[2] = target: 5'-AMP-activated protein kinase catalytic subunit alpha-2 (Homo sapiens) (UniProt P54646); settings: Compound concentration 1000.0 nM
[3] = target: Mitogen-activated protein kinase kinase kinase 5 (Homo sapiens) (UniProt Q99683); settings: Compound concentration 1000.0 nM
[4] = target: Serine/threonine-protein kinase BRSK2 (Homo sapiens) (UniProt Q8IWQ3); settings: Compound concentration 1000.0 nM
[5] = target: Calcium/calmodulin-dependent protein kinase type 1G (Homo sapiens) (UniProt Q96NX5); settings: Compound concentration 1000.0 nM
[6] = target: Cyclin-dependent kinase 2 (Homo sapiens) (UniProt P24941); settings: Compound concentration 1000.0 nM
[7] = target: Epithelial discoidin domain-containing receptor 1 (Homo sapiens) (UniProt Q08345); settings: Compound concentration 1000.0 nM
[8] = target: Dual specificity tyrosine-phosphorylation-regulated kinase 1B (Homo sapiens) (UniProt Q9Y463); settings: Compound concentration 1000.0 nM
[9] = test system: Epidermal growth factor receptor (Homo sapiens), P00533 [L858R]; settings: Compound concentration 1000.0 nM
[10] = test system: Epidermal growth factor receptor (Homo sapiens), P00533 [L858R,T790M]; settings: Compound concentration 1000.0 nM
[11] = target: Ephrin type-A receptor 1 (Homo sapiens) (UniProt P21709); settings: Compound concentration 1000.0 nM
[12] = target: Ephrin type-B receptor 2 (Homo sapiens) (UniProt P29323); settings: Compound concentration 1000.0 nM
[13] = target: Mitogen-activated protein kinase 15 (Homo sapiens) (UniProt Q8TD08); settings: Compound concentration 1000.0 nM
[14] = target: Tyrosine-protein kinase Fes/Fps (Homo sapiens) (UniProt P07332); settings: Compound concentration 1000.0 nM
[15] = test system: Fibroblast growth factor receptor 3 (Homo sapiens), P22607 [G697C]; settings: Compound concentration 1000.0 nM
[16] = target: Fibroblast growth factor receptor 4 (Homo sapiens) (UniProt P22455); settings: Compound concentration 1000.0 nM
[17] = test system: Receptor-type tyrosine-protein kinase FLT3 (Homo sapiens), P36888 [UNDEFINED MUTATION]; settings: Compound concentration 1000.0 nM
[18] = target: Vascular endothelial growth factor receptor 3 (Homo sapiens) (UniProt P35916); settings: Compound concentration 1000.0 nM
[19] = target: Rhodopsin kinase GRK7 (Homo sapiens) (UniProt Q8WTQ7); settings: Compound concentration 1000.0 nM
[20] = target: Glycogen synthase kinase-3 beta (Homo sapiens) (UniProt P49841); settings: Compound concentration 1000.0 nM
[21] = target: Serine/threonine-protein kinase haspin (Homo sapiens) (UniProt Q8TF76); settings: Compound concentration 1000.0 nM
[22] = target: Mitogen-activated protein kinase kinase kinase kinase 5 (Homo sapiens) (UniProt Q9Y4K4); settings: Compound concentration 1000.0 nM
[23] = target: Serine/threonine-protein kinase 26 (Homo sapiens) (UniProt Q9P289); settings: Compound concentration 1000.0 nM
[24] = target: Muscle, skeletal receptor tyrosine-protein kinase (Homo sapiens) (UniProt O15146); settings: Compound concentration 1000.0 nM
[25] = target: Serine/threonine-protein kinase PAK 6 (Homo sapiens) (UniProt Q9NQU5); settings: Compound concentration 1000.0 nM
[26] = target: Cyclin-dependent kinase 16 (Homo sapiens) (UniProt Q00536); settings: Compound concentration 1000.0 nM
[27] = target: Platelet-derived growth factor receptor alpha (Homo sapiens) (UniProt P16234); settings: Compound concentration 1000.0 nM
[28] = target: Platelet-derived growth factor receptor beta (Homo sapiens) (UniProt P09619); settings: Compound concentration 1000.0 nM
[29] = test system: Phosphatidylinositol 4,5-bisphosphate 3-kinase catalytic subunit alpha isoform (Homo sapiens), P42336 [E545A]; settings: Compound concentration 1000.0 nM
[30] = test system: Phosphatidylinositol 4,5-bisphosphate 3-kinase catalytic subunit alpha isoform (Homo sapiens), P42336 [E545K]; settings: Compound concentration 1000.0 nM
[31] = target: Phosphatidylinositol 4-kinase beta (Homo sapiens) (UniProt Q9UBF8); settings: Compound concentration 1000.0 nM
[32] = target: Phosphatidylinositol 4-phosphate 5-kinase type-1 alpha (Homo sapiens) (UniProt Q99755); settings: Compound concentration 1000.0 nM
[33] = test system: Proto-oncogene tyrosine-protein kinase receptor Ret (Homo sapiens), P07949 [V804M]; settings: Compound concentration 1000.0 nM
[34] = target: Rho-associated protein kinase 2 (Homo sapiens) (UniProt O75116); settings: Compound concentration 1000.0 nM
[35] = target: Proto-oncogene tyrosine-protein kinase ROS (Homo sapiens) (UniProt P08922); settings: Compound concentration 1000.0 nM
[36] = target: Ribosomal protein S6 kinase alpha-4 (Homo sapiens) (UniProt O75676); settings: Compound concentration 1000.0 nM
[37] = target: Uncharacterized serine/threonine-protein kinase SBK3 (Homo sapiens) (UniProt P0C264); settings: Compound concentration 1000.0 nM
[38] = target: SNF-related serine/threonine-protein kinase (Homo sapiens) (UniProt Q9NRH2); settings: Compound concentration 1000.0 nM
[39] = target: Tyrosine-protein kinase Srms (Homo sapiens) (UniProt Q9H3Y6); settings: Compound concentration 1000.0 nM
[40] = target: Serine/threonine-protein kinase tousled-like 1 (Homo sapiens) (UniProt Q9UKI8); settings: Compound concentration 1000.0 nM
[41] = target: TRAF2 and NCK-interacting protein kinase (Homo sapiens) (UniProt Q9UKE5); settings: Compound concentration 1000.0 nM
[42] = target: Testis-specific serine/threonine-protein kinase 3 (Homo sapiens) (UniProt Q96PN8); settings: Compound concentration 1000.0 nM
[43] = target: Mitogen-activated protein kinase kinase kinase 20 (Homo sapiens) (UniProt Q9NYL2); settings: Compound concentration 1000.0 nM
[44] = target: Delta-type opioid receptor (Homo sapiens) (UniProt P41143); settings: Compound concentration 10.0 uM
[45] = target: Histamine H2 receptor (Homo sapiens) (UniProt P25021); settings: Compound concentration 10.0 uM

Chain of Glycogen synthase kinase-3 beta (Homo sapiens) (P49841 whole entry, looked up): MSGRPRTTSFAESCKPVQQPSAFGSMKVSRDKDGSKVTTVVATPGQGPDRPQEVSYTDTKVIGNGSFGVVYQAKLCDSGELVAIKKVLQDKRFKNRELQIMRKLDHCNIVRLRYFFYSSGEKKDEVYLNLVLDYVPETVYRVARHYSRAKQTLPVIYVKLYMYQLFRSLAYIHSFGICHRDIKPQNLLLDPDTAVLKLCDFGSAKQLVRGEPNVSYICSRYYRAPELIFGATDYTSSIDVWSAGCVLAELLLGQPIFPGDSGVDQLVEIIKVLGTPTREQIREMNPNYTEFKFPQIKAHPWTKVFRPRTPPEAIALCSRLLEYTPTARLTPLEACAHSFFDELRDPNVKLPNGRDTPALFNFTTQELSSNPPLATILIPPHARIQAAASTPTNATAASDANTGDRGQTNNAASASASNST
Chain of Dual specificity tyrosine-phosphorylation-regulated kinase 1B (Homo sapiens) (Q9Y463 whole entry, looked up): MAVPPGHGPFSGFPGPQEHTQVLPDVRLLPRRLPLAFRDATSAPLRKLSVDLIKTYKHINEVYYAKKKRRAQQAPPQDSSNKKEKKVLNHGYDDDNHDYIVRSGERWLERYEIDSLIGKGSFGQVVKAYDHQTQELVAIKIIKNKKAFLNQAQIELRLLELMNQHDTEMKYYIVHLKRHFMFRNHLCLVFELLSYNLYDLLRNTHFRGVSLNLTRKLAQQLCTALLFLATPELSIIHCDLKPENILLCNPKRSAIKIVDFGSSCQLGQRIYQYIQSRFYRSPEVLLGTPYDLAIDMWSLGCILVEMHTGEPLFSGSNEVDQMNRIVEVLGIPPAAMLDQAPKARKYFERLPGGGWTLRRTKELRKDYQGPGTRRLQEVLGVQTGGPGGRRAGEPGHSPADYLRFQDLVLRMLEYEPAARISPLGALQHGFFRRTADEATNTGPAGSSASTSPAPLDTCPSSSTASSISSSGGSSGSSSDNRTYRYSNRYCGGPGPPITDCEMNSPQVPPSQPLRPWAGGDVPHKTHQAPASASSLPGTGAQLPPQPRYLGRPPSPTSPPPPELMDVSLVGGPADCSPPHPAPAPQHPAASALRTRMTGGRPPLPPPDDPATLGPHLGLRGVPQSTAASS
Chain of Phosphatidylinositol 4,5-bisphosphate 3-kinase catalytic subunit alpha isoform (Homo sapiens), P42336 [E545A] (P42336 whole entry E545A, canonical isoform): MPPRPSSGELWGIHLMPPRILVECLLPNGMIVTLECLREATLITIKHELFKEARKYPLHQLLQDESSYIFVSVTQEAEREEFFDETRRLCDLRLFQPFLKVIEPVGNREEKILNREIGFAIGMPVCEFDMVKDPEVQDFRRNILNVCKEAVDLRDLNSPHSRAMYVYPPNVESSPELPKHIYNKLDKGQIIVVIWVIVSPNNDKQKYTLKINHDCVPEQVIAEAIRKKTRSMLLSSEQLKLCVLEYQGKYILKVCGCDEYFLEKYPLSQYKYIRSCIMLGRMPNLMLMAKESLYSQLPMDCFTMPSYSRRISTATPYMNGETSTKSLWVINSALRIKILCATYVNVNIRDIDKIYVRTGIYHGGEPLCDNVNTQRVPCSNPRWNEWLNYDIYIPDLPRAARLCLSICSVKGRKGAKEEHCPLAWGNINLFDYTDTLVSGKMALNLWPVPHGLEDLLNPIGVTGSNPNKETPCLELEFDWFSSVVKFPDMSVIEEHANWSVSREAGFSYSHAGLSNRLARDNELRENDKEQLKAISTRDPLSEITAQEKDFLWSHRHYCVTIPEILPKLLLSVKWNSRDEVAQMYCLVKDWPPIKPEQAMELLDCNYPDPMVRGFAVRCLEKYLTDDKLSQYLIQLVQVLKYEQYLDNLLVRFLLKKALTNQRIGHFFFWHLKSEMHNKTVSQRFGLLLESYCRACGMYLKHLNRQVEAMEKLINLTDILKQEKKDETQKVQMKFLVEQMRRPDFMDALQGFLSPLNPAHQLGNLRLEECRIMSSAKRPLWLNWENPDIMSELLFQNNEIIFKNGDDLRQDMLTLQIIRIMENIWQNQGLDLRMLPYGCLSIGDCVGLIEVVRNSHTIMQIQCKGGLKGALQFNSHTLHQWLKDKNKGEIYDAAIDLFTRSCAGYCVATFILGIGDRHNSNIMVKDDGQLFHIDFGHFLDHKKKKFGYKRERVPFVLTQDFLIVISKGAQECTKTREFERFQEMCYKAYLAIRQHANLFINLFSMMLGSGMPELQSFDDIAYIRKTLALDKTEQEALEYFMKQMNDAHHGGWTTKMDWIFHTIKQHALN
Chain of Phosphatidylinositol 4-kinase beta (Homo sapiens) (Q9UBF8 2-816 limits assumed): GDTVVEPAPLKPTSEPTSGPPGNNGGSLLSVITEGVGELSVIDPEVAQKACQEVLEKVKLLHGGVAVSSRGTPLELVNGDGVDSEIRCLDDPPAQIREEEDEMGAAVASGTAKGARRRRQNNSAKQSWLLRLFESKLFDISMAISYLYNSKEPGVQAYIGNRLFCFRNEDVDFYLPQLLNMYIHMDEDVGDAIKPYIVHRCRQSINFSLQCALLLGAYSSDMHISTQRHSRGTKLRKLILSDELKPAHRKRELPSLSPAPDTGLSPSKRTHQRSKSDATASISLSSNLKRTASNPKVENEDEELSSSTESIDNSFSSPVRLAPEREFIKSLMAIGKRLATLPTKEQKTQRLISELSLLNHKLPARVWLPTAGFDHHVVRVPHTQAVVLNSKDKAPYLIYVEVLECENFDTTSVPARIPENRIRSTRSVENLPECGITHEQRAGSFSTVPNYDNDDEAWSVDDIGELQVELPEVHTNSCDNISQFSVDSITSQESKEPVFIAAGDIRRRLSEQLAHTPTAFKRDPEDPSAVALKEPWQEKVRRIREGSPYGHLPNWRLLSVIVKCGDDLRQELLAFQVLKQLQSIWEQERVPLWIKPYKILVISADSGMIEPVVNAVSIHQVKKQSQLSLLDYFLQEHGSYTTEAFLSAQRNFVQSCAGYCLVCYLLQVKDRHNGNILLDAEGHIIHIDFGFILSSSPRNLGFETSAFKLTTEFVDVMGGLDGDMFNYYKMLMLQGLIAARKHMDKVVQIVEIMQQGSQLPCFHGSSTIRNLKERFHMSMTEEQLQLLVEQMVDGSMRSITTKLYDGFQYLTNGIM
Chain of Tyrosine-protein kinase Srms (Homo sapiens) (Q9H3Y6 whole entry): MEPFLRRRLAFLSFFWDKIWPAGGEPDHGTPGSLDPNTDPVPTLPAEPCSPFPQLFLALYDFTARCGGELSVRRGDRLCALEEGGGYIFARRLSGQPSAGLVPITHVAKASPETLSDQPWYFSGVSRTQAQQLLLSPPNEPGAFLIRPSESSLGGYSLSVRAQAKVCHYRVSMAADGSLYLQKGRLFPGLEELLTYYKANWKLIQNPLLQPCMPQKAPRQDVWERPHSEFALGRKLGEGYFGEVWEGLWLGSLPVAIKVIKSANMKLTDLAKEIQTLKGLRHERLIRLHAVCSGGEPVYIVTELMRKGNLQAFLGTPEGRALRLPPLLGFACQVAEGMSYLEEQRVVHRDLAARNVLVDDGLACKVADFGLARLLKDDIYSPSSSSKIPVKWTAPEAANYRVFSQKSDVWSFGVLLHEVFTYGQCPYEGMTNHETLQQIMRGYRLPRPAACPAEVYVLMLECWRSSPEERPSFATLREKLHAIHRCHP
Chain of Fibroblast growth factor receptor 4 (Homo sapiens) (P22455 22-802 limits assumed): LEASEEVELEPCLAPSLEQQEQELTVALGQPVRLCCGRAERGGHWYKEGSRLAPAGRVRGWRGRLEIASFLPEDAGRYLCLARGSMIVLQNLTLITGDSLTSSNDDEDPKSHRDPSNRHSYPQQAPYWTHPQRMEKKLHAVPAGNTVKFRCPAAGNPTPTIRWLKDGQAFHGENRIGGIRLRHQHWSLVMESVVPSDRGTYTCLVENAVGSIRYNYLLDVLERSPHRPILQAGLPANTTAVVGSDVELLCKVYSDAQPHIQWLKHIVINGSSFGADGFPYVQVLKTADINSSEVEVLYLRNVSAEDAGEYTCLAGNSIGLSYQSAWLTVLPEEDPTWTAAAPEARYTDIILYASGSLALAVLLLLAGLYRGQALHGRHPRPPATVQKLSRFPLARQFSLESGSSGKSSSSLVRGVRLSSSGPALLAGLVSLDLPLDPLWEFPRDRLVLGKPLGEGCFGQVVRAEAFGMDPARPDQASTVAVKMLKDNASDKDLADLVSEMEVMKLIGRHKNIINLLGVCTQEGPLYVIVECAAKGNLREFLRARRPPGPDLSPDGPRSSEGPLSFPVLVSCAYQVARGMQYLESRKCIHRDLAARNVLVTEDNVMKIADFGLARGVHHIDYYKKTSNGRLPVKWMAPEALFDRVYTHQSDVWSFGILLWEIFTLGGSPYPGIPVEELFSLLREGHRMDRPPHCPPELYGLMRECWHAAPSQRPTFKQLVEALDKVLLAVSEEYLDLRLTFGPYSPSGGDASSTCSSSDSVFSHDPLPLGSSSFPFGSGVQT
Chain of Serine/threonine-protein kinase PAK 6 (Homo sapiens) (Q9NQU5 whole entry, looked up): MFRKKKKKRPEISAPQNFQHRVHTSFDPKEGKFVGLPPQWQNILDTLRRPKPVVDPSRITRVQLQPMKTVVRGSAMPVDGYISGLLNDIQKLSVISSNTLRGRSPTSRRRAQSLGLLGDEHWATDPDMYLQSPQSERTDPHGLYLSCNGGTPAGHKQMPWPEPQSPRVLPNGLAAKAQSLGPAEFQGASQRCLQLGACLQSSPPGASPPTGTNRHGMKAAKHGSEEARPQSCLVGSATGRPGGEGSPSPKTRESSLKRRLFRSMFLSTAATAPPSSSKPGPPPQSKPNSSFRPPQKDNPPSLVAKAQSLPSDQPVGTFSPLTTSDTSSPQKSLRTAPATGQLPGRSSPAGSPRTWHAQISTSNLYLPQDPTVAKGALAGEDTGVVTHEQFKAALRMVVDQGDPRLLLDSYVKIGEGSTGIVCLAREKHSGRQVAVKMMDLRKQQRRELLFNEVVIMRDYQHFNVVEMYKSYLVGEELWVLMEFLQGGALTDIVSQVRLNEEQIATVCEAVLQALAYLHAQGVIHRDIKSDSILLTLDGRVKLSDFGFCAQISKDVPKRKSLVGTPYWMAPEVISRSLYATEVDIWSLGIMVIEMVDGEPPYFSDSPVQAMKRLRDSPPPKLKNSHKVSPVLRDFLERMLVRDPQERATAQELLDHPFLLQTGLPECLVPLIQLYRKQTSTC
Chain of Phosphatidylinositol 4,5-bisphosphate 3-kinase catalytic subunit alpha isoform (Homo sapiens), P42336 [E545K] (P42336 whole entry E545K, canonical isoform): as the sequence (P42336 whole entry E545A, canonical isoform) above, with A545K counted along it

CS(=O)(=O)NCC[C@H](NC(=O)c1cncc2c1cnn2-c1ccc(F)cc1)c1ccnc(S(C)(=O)=O)c1 [BI 9307]
inactive: residual activity [1] 90% | residual activity [2] 97% | residual activity [3] 96% | residual activity [4] 77% | residual activity [5] 100% | residual activity [6] 100% | residual activity [7] 92% | residual activity [8] 100% | residual activity [9] 83% | residual activity [10] 78% | residual activity [11] 100% | residual activity [12] 92% | residual activity [13] 100% | residual activity [14] 100% | residual activity [15] 82% | residual activity [16] 100% | residual activity [17] 92% | residual activity [18] 100% | residual activity [19] 100% | residual activity [20] 100% | residual activity [21] 100% | residual activity [22] 83% | residual activity [23] 98% | residual activity [24] 100% | residual activity [25] 100% | residual activity [26] 100% | residual activity [27] 100% | residual activity [28] 100% | residual activity [29] 100% | residual activity [30] 78% | residual activity [31] 100% | residual activity [32] 100% | residual activity [33] 96% | residual activity [34] 100% | residual activity [35] 94% | residual activity [36] 100% | residual activity [37] 100% | residual activity [38] 100% | residual activity [39] 83% | residual activity [40] 100% | residual activity [41] 100% | residual activity [42] 100% | residual activity [43] 88% | inhibition [44] -2.19% | inhibition [45] 2.46%

CS(=O)(=O)c1cc(C2(NC(=O)c3cncc4c3cnn4-c3ccc(F)cc3)CC2)ccn1 [BI 639667]
inactive: residual activity [1] 100% | residual activity [2] 100% | residual activity [3] 97% | residual activity [4] 84% | residual activity [5] 100% | residual activity [6] 94% | residual activity [7] 100% | residual activity [8] 74% | residual activity [9] 100% | residual activity [10] 81% | residual activity [11] 100% | residual activity [12] 100% | residual activity [13] 100% | residual activity [14] 100% | residual activity [15] 91% | residual activity [16] 74% | residual activity [17] 100% | residual activity [18] 100% | residual activity [19] 96% | residual activity [20] 85% | residual activity [21] 90% | residual activity [22] 98% | residual activity [23] 97% | residual activity [24] 68% | residual activity [25] 96% | residual activity [26] 94% | residual activity [27] 90% | residual activity [28] 93% | residual activity [29] 100% | residual activity [30] 74% | residual activity [31] 96% | residual activity [32] 100% | residual activity [33] 97% | residual activity [34] 75% | residual activity [35] 100% | residual activity [36] 81% | residual activity [37] 100% | residual activity [38] 88% | residual activity [39] 86% | residual activity [40] 75% | residual activity [41] 95% | residual activity [42] 100% | residual activity [43] 86% | inhibition [44] -5.92% | inhibition [45] 3.34%

Source: ChEMBL document CHEMBL4507278 (2021)
